pIC50: −log10 of the molar value. Structures can show the parent of a compound that is named as a salt.
Key:
Format in all cases: biochemical
[1] = target: T1, Tie-2 (Homo sapiens, UniProt Q02763); test: RTK ELISA, recombinant kinase domain, Tie-2; conditions: GST-Tie2/Tek (aa 771-1124) expressed in baculovirus infected insect cells
T1 construct: GST-Tie2/Tek (aa 771-1124); GST (N); purchased ProQuinase, Freiburg; host or cells: baculovirus infected insect cells Sf9
Experimental: (§1) Follwing IC50 values were determined in the RTK ELISA using recombinant kinase domains of receptor tyrosine kinases which were expressed in baculovirus infected insect cells.
(§2) Receptor Tyrosine Kinase Assay
(§3) The following in vitro assays are used to determine the ability of different compounds to inhibit the transfer of phosphate groups onto tyrosine residues of downstream substrates. The level of phosphorylation is measured by a monoclonal antibody which is specific for phosphorylated tyrosine residues in an enzyme-linked immunosorbent assay (ELISA).
(§4) The following recombinant kinases were expressed in baculovirus infected insect cells Sf9 and purchased from ProQuinase, Freiburg:
(§5) If not otherwise indicated all steps are performed at room temperature.
(§6) 1.) Coat wells of ELISA plate with […] Poly-Glu-Tyr 4:1 in 100 μl/well PBS buffer (137 mM NaCl, 3 mM KCl, 1.5 mM KH2PO4, 8.2 mM Na2HPO4) overnight at 4° C.
(§7) 2.) Wash 2 times for 5 min each with PBS+0.05% Tween20 […]
(§8) a) Add 5-30 ng/well kinase in 50 μl/well kinase buffer (100 mM HEPES pH 7.4, 100 mM NaCl, 0.1 mM Na3VO4) b) Add 25 μl/well compound (50 and 5 μM) in 5% DMSO c) Add 25 μl/well 100 μM ATP in 40 mM MnCl2
(§9) 4.) Wash 3 times for 5 min each with PBS+0.05% Tween20
(§10) 5.) Add anti phosphotyrosin antibody/HRP 1:10.000 in 100 μl/well PBS+0.05% Tween+0.1 BSA, incubate for 1 h
(§11) 6.) Wash 3 times for 5 min each with PBS+0.05% Tween20
(§12) 7.) Chemoluminescence reaction: a.) Premix 25 μl/well BM CLS Solution 1 with 0.25 μl/well BM CLS Solution 2 b.) Preincubate for 15 min […]
(§13) d.) Add 50 μl/well substrate solution to microtiter wells e.) Incubate for at least 1 min
(§14) 8.) Detect chemoluminescence signals in Tecan Genios reader

[2] = target: T2, c-Met (Homo sapiens, UniProt P08581); test: RTK ELISA, recombinant kinase domain, c-Met; conditions: GST-cMet (aa956-1390) expressed in baculovirus infected insect cells
T2 construct: GST-cMet (aa956-1390); GST (N); purchased ProQuinase, Freiburg; host or cells: baculovirus infected insect cells Sf9
T2 sequence (P08581 956-1390): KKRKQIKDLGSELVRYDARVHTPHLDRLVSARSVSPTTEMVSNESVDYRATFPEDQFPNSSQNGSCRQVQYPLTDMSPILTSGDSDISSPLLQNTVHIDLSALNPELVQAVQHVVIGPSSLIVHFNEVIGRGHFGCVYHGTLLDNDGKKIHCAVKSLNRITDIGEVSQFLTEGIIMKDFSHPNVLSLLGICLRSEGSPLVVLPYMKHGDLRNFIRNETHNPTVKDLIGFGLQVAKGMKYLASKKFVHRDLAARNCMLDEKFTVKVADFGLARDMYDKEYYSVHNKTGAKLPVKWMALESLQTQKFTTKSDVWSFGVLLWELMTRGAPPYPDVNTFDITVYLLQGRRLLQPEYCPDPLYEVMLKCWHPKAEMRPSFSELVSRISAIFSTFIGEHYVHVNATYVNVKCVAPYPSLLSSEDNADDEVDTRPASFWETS
Experimental: as §1, §2, §3, §4, §5, §6, §7, §8, §9, §10, §11, §12, §13, §14

[3] = target: T3, KDR (Homo sapiens, UniProt P35968); test: RTK ELISA, recombinant kinase domain, KDR; conditions: GST-KDR (aa807-1356) expressed in baculovirus infected insect cells
T3 construct: GST-KDR (aa807-1356); GST (N); purchased ProQuinase, Freiburg; host or cells: baculovirus infected insect cells Sf9
T3 sequence (P35968 807-1356): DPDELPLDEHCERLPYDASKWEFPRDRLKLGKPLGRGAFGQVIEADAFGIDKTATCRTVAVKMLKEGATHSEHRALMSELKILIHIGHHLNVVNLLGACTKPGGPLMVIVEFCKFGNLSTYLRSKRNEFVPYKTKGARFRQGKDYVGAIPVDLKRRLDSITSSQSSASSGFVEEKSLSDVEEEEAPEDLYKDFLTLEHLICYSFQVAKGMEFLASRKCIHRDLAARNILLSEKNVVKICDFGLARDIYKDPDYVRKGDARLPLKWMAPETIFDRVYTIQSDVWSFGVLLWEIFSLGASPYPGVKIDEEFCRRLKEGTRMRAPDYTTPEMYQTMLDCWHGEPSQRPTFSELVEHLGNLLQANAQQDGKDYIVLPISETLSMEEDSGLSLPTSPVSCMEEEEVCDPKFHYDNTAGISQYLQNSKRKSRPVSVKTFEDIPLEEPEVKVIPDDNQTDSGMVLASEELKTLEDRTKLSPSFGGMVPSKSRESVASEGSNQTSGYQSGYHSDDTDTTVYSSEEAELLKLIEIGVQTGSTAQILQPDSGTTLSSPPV
Experimental: as §1, §2, §3, §4, §5, §6, §7, §8, §9, §10, §11, §12, §13, §14

T1 sequence (Q02763 771-1124): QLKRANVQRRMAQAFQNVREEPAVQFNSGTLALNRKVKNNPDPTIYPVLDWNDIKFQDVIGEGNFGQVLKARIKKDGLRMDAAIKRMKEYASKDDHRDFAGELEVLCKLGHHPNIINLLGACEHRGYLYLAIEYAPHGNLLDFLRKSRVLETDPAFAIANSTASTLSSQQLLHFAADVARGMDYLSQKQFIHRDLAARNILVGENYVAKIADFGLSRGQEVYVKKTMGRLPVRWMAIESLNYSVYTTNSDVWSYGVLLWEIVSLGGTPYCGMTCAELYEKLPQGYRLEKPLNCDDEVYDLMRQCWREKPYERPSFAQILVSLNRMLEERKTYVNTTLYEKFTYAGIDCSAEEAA

Row | SMILES | pIC50 [1] | pIC50 [2] | pIC50 [3]
1 | CCN(CC)c1ccc(-c2csc(Nc3ccccn3)n2)cc1 [Number 29, [4-(4-diethylamino-phenyl)-thiazol-2-yl)-pyridin-2-yl-amine Hydrobromide] | < 4.30 | < 4.30 | < 4.30
2 | c1ccc(CCNc2nc(-c3ccc(N4CCCC4)cc3)cs2)cc1 [Number 11, phenylethyl-[4-(4-pyrrolidin-1-yl-phenyl)-thiazol-2-yl]-amine Hydrobromide] | < 4.30 |  | 
3 | CCN(CC)c1ccc(-c2coc(N)n2)cc1 [Number 24, 4-(4-diethylamino-phenyl)-oxazol-2-ylamine Hydrobromide] | 5.30 | < 4.30 | 5.82
4 | CCN(CC)c1ccc(-c2csc(NCc3ccccc3)n2)cc1 [Number 28, benzyl-[4-(4-diethylamino-phenyl)-thiazol-2-yl]-amine Hydrobromide] | < 4.30 | < 4.30 | < 4.30
5 | c1ccc(Nc2nc(-c3ccc(N4CCCC4)cc3)cs2)nc1 [Number 12, Hydrobromide] | < 4.30 |  | 
6 | CCN(CC)c1ccc(-c2csc(N(C)c3ccccc3)n2)cc1 [Number 27, [4-(4-diethylamino-phenyl)-thiazol-2-yl]-methyl-phenyl-amine Hydrobromide] | < 4.30 | < 4.30 | < 4.30
7 | c1ccc(Nc2nc(-c3ccc(N4CCCC4)cc3)cs2)cc1 [Number 8, phenyl-[4-(4-pyrrolidin-1-yl-phenyl)-thiazol-2-yl]-amine Hydrobromide] | 5.30 | < 4.60 | 5.60
8 | CNc1nc(-c2ccc(-c3ccccn3)s2)cs1 [Number 36, methyl-[4-(5-pyridin-2-yl-thiophen-2-yl)-thiazol-2-yl]-amine Hydrobromide] | < 4.70 | < 4.30 | < 5.00
9 | Nc1nc(-c2ccc(N3CCCC3)cc2)co1 [Number 6, 4-(4-pyrrolidin-1-yl-phenyl)-oxazol-2-ylamine Hydrobromide] | 5.30 | < 4.30 | < 4.60
10 | c1ccc(CNc2nc(-c3ccc(N4CCCC4)cc3)cs2)cc1 [Number 10, benzyl-[4-(4-pyrrolidin-1-yl-phenyl)-thiazol-2-yl]-amine Hydrobromide] | 5.30 | < 4.30 | < 4.30
11 | c1ccc(Nc2nccs2)cc1 [Number 3, phenyl-thiazol-2-yl-amine Hydrochloride] |  | < 4.30 | 5.46
12 | CNc1nccs1 [Number 2, methyl-thiazol-2-yl-amine Hydrochloride] | < 4.30 | < 4.30 | 5.30
13 | c1cc(-c2nc(-c3ccc(N4CCCC4)cc3)co2)ccn1 [Number 16, 4-[4-(4-pyrzolidin-1-yl-phenyl)-oxazol-2-yl]-pyridine Hydrobromide] | < 4.30 | < 4.30 | < 4.30
14 | c1cc(Nc2nc(-c3ccc(N4CCCC4)cc3)cs2)ccc1Nc1nc(-c2ccc(N3CCCC3)cc2)cs1 [Number 18, N,N′-bis-[4-(4-pyrrolidin-1-yl-phenyl)-thiazol-2-yl]-benzene-1,4-diamine Dihydrobromide] | < 5.00 | < 4.30 | < 5.00
15 | c1cncc(Nc2nccs2)c1 [Number 4, pyridin-3-yl-thiazol-2-yl-amine Hydrochloride] | < 4.30 | < 4.60 | 5.30

Next, values leading:

Row | pIC50 [1] | pIC50 [2] | pIC50 [3] | SMILES
16 | 5.30 | < 4.60 | < 4.30 | c1cncc(-c2nc(-c3ccc(N4CCCC4)cc3)co2)c1 [Number 14, 3-[4-(4-pyrrolidin-1-yl-phenyl)-oxazol-2-yl]-pyridine Hydrobromide]
17 | 5.30 | < 4.30 | 5.30 | CCN(CC)c1ccc(-c2csc(C)n2)cc1 [Number 33, diethyl-[4-(2-methyl-thiazol-4-yl)-phenyl]-amine Hydrobromide]
18 | 5.70 | < 4.60 | < 5.00 | O=[N+]([O-])c1ccc(Nc2nc(-c3ccc(N4CCCC4)cc3)cs2)cc1 [Number 17, Dihydrobromide]
19 | 5.60 | < 4.30 | < 4.30 | c1ccc(-c2ccc(-c3csc(Nc4cccnc4)n3)s2)nc1 [Number 37, pyridin-3-yl-[(4-(5-pyridin-2-yl-thiophen-2-yl)-thiazol-2-yl]-amine Hydrobromide]
20 | 6.00 | < 5.00 | 5.70 | c1cncc(Nc2nc(-c3ccc(N4CCCC4)cc3)cs2)c1 [Number 13, Hydrobromide]
21 | 5.30 | < 4.30 | 5.70 | CCN(CC)c1ccc(-c2csc(N)n2)cc1 [Number 23, 4-(4-diethylamino-phenyl)-thiazol-2-ylamine Hydrobromide]
22 | 5.82 | < 4.30 | 5.82 | CNc1nc(-c2cnn(-c3ccccc3)c2C)cs1 [Number 34, methyl-[4-(5-methyl-1-phenyl-1H-pyrazol-4-yl)-thiazol-2-yl]-amine Hydrochloride]
23 | > 6.00 | < 5.00 | 6.00 | O=C(O)c1ccc(Nc2nc(-c3ccc(N4CCCC4)cc3)cs2)cc1 [Number 20, 4-[4-(4-pyrrolidin-1-yl-phenyl)-thiazol-2-ylamino]-benzoic Acid Hydrobromide]
24 | 5.70 | < 4.60 | 5.70 | CCN(CC)c1ccc(-c2csc(Nc3ccccc3)n2)cc1 [Number 26, [4-(4-Diethylamino-phenyl)-thiazol-2-yl]-phenyl-amine Hydrobromide]
25 | 5.52 | < 4.30 | 5.15 | CNc1nc(-c2ccc(N3CCCC3)cc2)cs1 [Number 7, methyl-[4-(4-pyrrolidin-1-yl-phenyl)-thiazol-2-yl]-amine Hydrobromide]
26 | 6.00 | < 4.30 | 5.30 | CCN(CC)c1ccc(-c2csc(NC)n2)cc1 [Number 25, [4-(4-diethylamino-phenyl)-thiazol-2-yl]-methyl-amine Hydrobromide]
27 | 5.60 | < 4.30 |  | Cc1nc(-c2ccc(N3CCCC3)cc2)cs1 [Number 21, 2-methyl-4-(4-pyrrolidin-1-yl-phenyl)-thiazole Hydrobromide]
28 | 5.60 | < 4.60 | < 4.60 | CN(c1ccccc1)c1nc(-c2ccc(N3CCCC3)cc2)cs1 [Number 9, methyl-phenyl-[4-(4-pyrrolidin-1-yl-phenyl)-thiazol-2-yl]-amine Hydrobromide]
29 | 5.60 | 5.30 | 5.30 | Nc1nc(-c2ccc(N3CCCC3)cc2)cs1 [Number 5, 4-(4-pyrrolidin-1-yl-phenyl)-thiazol-2-ylamine Hydrobromide]
30 | 6.10 | < 4.30 | 5.52 | CCN(CC)c1ccc(-c2csc(Nc3cccnc3)n2)cc1 [Number 30]
31 | 6.00 | 5.70 | 6.00 | c1ccc(CCNc2nc(-c3ccccn3)cs2)cc1 [Number 35, phenylethyl-(4-pyridin-2-yl-thiazol-2-yl)-amine Hydrobromide]
32 | 5.52 | < 4.30 | 5.30 | CCN(CC)c1ccc(-c2csc(Nc3cccc(C(F)(F)F)c3)n2)cc1 [Number 32, [4-(4-diethylamino-phenyl)-thiazol-2-yl-(3-trifluoromethyl-phenyl)-amine Hydrobromide]
33 | 5.70 | < 4.30 | 5.70 | FC(F)(F)c1cccc(Nc2nc(-c3ccc(N4CCCC4)cc3)cs2)c1 [Number 19, [4-(4-pyrrolidin-1-yl-phenyl)-thiazol-2-yl]-(3-trifluoromethyl-phenyl)-amine Hydrobromide]
34 | 6.00 | < 5.00 | 5.30 | c1cc(Nc2nc(-c3ccc(N4CCCC4)cc3)cs2)ccn1 [Number 15, pyridin-4-yl-[4-(4-pyrrolidin-1-yl-phenyl)-thiazol-2-yl]-amine Hydrobromide]

From patent US20030158199A1, “Novel compounds for inhibition of Tie-2” (KYLIX, B.V., priority 2002, published 2003)
